Laboratory results from patent publication US11925617B2 (priority 2005, dated 2024).

Assays:
HT29 cells = type: cell-based, Human
SCC VII cells = type: cell-based, murine
HL60 neo cells [1] = test: cells; type: cell-based; conditions: Homo sapiens, HL-60, 240 h, read-out: inhibition of cell growth
HL60 bcl-2 cells [2] = test: cells; type: cell-based
HL60 neo cells [3] = type: cell-based
HL60 bcl-2 cells [4] = type: cell-based
bcl-2 protein = type: cell-based

Q: Which results are given for O=C(CBr)N1CC([N+](=O)[O-])([N+](=O)[O-])C1 [ABDNAZ]?
A: intracellular ROS generation, combined treatment of ABDNAZ and radiation (HT29 cells): synergistically induced intracellular ROS generation; production of ROS (HT29 cells): dose, time and cell line dependent; time of peak ROS production (HT29 cells): 24 h; intracellular ROS generation, combined treatment of ABDNAZ and radiation (SCC VII cells): synergistically induced intracellular ROS generation; levels of ROS compared with HT29 cells (SCC VII cells): significantly higher than that induced in HT29 cells; production of ROS (SCC VII cells): dose, time and cell line dependent; time of peak ROS production (SCC VII cells): 2 h; inhibition at 5 µM (HL60 neo cells [1]): > 95%; sensitivity of HL60 bcl-2 cells compared with neo cells (HL60 bcl-2 cells [2]): as sensitive as neo cells; inhibition at 5 µM (HL60 bcl-2 cells [2]; Homo sapiens, HL-60, 240 h, read-out: inhibition of cell growth): > 95%; apoptosis (HL60 neo cells [3]): 95%; apoptotic cell death, peak (HL60 neo cells [3]): ~40%; apoptosis (HL60 bcl-2 cells [4]): 78%; apoptotic cell death, peak (HL60 bcl-2 cells [4]): ~40%; bcl-2 protein expression (bcl-2 protein): inhibited bcl-2 protein expression in both neo and bcl-2 cells in a dose-dependent manner
